Measurements from BindingDB's records for doi:10.1128/AAC.01572-08 (Mcmaster University, 2009).

Molecular target: Bifunctional protein GlmU (Escherichia coli (strain K12), UniProt P0ACC7)
Test: Competitive inhibition of Acetyltransferase activity of Escherichia coli BL21(DE3) GlmU in presence of AcCoA

Sequence of Bifunctional protein GlmU (P0ACC7 whole entry): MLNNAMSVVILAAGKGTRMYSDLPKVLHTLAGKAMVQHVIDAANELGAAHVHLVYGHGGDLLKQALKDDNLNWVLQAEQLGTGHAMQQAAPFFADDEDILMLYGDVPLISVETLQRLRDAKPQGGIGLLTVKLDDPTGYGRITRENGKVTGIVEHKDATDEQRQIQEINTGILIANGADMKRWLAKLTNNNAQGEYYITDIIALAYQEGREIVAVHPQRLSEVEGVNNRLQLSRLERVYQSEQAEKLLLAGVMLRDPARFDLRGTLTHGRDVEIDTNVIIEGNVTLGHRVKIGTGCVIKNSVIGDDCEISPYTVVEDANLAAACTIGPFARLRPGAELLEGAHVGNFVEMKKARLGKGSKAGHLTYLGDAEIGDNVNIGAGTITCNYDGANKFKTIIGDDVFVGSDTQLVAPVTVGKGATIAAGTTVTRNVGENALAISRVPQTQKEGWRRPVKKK

Row | Ki [nM] | Structure (SMILES)
1 | 17 | Nc1ccc(Nc2ccc(N)cc2S(=O)(=O)O)cc1 [5-amino-2-(4-aminophenylamino)benzenesulfonic acid]
2 | 404 | O=S(=O)(Nc1ccc(S(=O)(=O)c2ccc(-c3ccc(S(=O)(=O)c4ccc(NS(=O)(=O)c5ccc(Cl)cc5)c(Cl)c4)cc3)cc2)cc1Cl)c1ccc(Cl)cc1 [Mac0008028]
3 | 23 | O=C(CSc1nnc(SCC(=O)NCCSCc2ccco2)s1)NCCSCc1ccco1 [Mac0029665]
